Results on 21 compounds are retold here after patent US20120165319A1, “INHIBITORS OF INTERLEUKIN-1 BETA CONVERTING ENZYME” (VERTEX PHARMACEUTICALS INCORPORATED, priority 1995, published 2012).

For experiment [1], the system named is IL-1β production, LPS-challenged mice. Put plainly: In vivo acute assay for efficacy as anti-inflammatory agent: LPS-induced IL-1β production in mice. More on the design: species or system mouse. The settings on record: for percent inhibition of IL-1β production / inhibition at 50 mg/kg: LPS challenged mice, compound PO, 50 mg/kg; for inhibition at 50 mg/kg: Mus musculus, po, read-out: percent inhibition of IL-1β production; for Inhibition (%) of IL-1β production in LPS-challenged mice: oral, dosed at time of LPS challenge. The procedure: In Vivo Acute Assay for Efficacy as Anti-Inflammatory Agent
LPS-Induced IL-1β Production.
Efficacy of 214e and 217e was evaluated in CD1 mice (n=6 per condition) challenged with LPS (20 mg/kg IP). […] Blood was collected seven hours after LPS challenge. Serum IL-1β levels were measure by ELISA. […] Similar results were obtained in a second experiment. […] However, a clear dose response was not apparent.
Compounds 214e and 217e (50 mg/kg) were also administered by oral gavage to assess absorption.
The efficacy of analogs of 214e were also evaluated in LPS challenged mice after IP administration (FIG. 9) and PO administration (FIG. 10).
[…] The protocol is described in Example 7.

In experiment [2] the test system is IL-1β, human whole blood. Put plainly: Whole blood assay for IL-1β production. The class given is cell-based. The settings on record: read-out: Whole human blood IC50. In outline:
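IL-1β was quantified by ELISA in plasma diluted 1:200. The plasma came from EDTA-anticoagulated human whole blood incubated at 30 °C for 16-18 h with LPS (final 5.0 ng/ml) plus a saline serial dilution of compound. Controls were no-LPS, no-inhibitor and highest-vehicle.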

Experiment [3] has as its target T1, ICE (Homo sapiens, UniProt P29466).
T1 sequence (P29466 120-297 limits assumed): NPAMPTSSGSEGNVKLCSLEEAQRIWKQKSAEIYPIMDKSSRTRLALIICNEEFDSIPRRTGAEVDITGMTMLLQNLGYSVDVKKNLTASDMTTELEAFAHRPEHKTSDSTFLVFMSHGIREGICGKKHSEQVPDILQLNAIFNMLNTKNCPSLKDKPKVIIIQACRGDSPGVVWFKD
T1 sequence (P29466 317-404 limits assumed): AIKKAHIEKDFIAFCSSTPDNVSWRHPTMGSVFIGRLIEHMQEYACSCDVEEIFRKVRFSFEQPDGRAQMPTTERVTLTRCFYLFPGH
Put plainly: Enzyme assay with UV-visible substrate (visible ICE assay, Succinyl-Tyr-Val-Ala-Asp-pNitroanilide). It is filed as biochemical. In outline: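 ICE preincubated with inhibitor in DMSO for 15 min at room temperature, then Suc-Tyr-Val-Ala-Asp-pNA added. pNA release read at 405-603 nm for 20 min at 37 °C, rate from linear fit in mOD/min. Ki and inhibition mode from fits of rates at varying inhibitor concentrations to standard kinetic equations.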

Experiment [4] concerns IL-1β, human peripheral blood mononuclear cells (PBMC). In words: PBMC cell assay: IL-1β assay with human PBMC or enriched adherent mononuclear cells, LPS-stimulated. The class given is cell-based. The method in brief:
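Mature IL-1β is measured by ELISA in supernatants after 16–18 hr at 37 °C, 5% CO2, with LPS (5 ng/ml final) and test compound (0.1% DMSO final). Cells are human PBMC (6×10^6 cells/ml) or plate-adherent mononuclear cells (2.5−3.0×10^5 per well), and the 5–6 compound concentrations span the ICE Ki.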

[5] abbreviates: 0 h, administered 0 h relative to time of LPS challenge.
Where [6] appears, read: 2 h, administered −2 h relative to time of LPS challenge.
The mark [7] stands for this setting: Homo sapiens, * = values obtained upon reassay.
[8] abbreviates: Homo sapiens, PBMC, * = values obtained upon reassay.
Setting [9] is: * = values obtained upon reassay.

Where two headings read alike, the source gives them in different places. Some results are limits rather than exact numbers.

For `CC(=O)N1C[C@H](NC(=O)c2cc(Cl)c(O)c(Cl)c2)C(=O)N(CC(=O)N[C@H]2CC(=O)OC2OCc2ccccc2)c2ccccc21` (mixture of isomers) [Compound 655, (3S)-2-Oxo-3-(3,5-dichloro-4-hydroxybenzoyl)amino-5-acetyl-N-[(2RS,3S)-benzyloxy-5-oxo-tetrahydrofuran-3-yl]-2,3,4,5-tetrahydro-1H-1,5-benzodiazepine-1-acetamide], the “percent inhibition of IL-1β production” value in experiment [1] (administered 0 h relative to time of LPS challenge) amounted to 68%; in experiment [1] (administered −2 h relative to time of LPS challenge), 0%.

As a reminder, the IC50 is the midpoint of a concentration-inhibition curve. By inhibition is commonly meant the drop in the measured response relative to a control, in per cent. In the case of `CCOC1OC(=O)C[C@@H]1NC(=O)[C@@H]1CCCN2C(=O)CC[C@H](NC(=O)c3ccc(O)cc3)C(=O)N12` (stereo partly drawn) [Compound 550p, [1S,9S(2RS,3S)]6,10-Dioxo-N-(2-ethoxy-5-oxotetrahydrofuran-3-yl)-9-(4-hydroxybenzoyl)amino-1,2,3,4,7,8,9,10-octahydro-6H-pyridazino[1,2-a][1,2]diazepine-1-carboxamide], in experiment [2] (Homo sapiens, Table 17), the IC50 was 2900 nM. The inhibition at 50 mg/kg in experiment [1] (setting [5]) is 60%; in experiment [1] (setting [6]) it was 30%.

Take `CCO[C@H]1OC(=O)C[C@@H]1NC(=O)[C@@H]1CCCN2C(=O)CC[C@H](NC(=O)c3nccc4ccccc34)C(=O)N12` [Compound 412e, [1S,9S(2S,3S)]N-(2-Ethoxy-5-oxotetrahydrofuran-3-yl)-6,10-dioxo-9-(isoquinolin-1-oylamino)-1,2,3,4,7,8,9,10-octahydro-6-H-pyridazino[1,2-a][1,2]diazepine-1-carboxamide]: the “Inhibition (%) of IL-1β production in LPS-challenged mice” value was determined as 5% in experiment [1] (10 mg/kg dose), 17% in experiment [1] (25 mg/kg dose) and 61% in experiment [1] (50 mg/kg dose).

Consider `O=C(CN1C(=O)[C@@H](NC(=O)c2ccccc2)CN(C(=O)CO)c2ccccc21)N[C@H]1CC(=O)OC1OCc1ccccc1` (mixture of isomers) [Compound 695a, (3S)-2-Oxo-3-benzoylamino-5-hydroxyacetyl-N-[(2RS,3S)-benzyloxy-5-oxo-tetrahydrofuran-3-yl]-2,3,4,5-tetrahydro-1H-1,5-benzodiazepine-1-acetamide], for which the results for the inhibition at 50 mg/kg in experiment [1] (setting [5]) and in experiment [1] (setting [6]) were 78% and 49%, respectively.

On to `O=C1C[C@H](NC(=O)[C@@H]2CCCN3C(=O)CC[C@H](NC(=O)c4ccccc4)C(=O)N23)[C@H](OC2Cc3ccccc3C2)O1` [Compound 2100m, [1S,9S (2R,3S)]9-Benzamido-6,10-dioxo-N-[2-(2-indanyloxy)-5-oxo-tetrahydrofuran-3-yl]-1,2,3,4,7,8,9,10-octahydro-6H-pyridazino[1,2-a][1,2]diazepine-1-carboxamide], for which the values for the inhibition at 50 mg/kg in experiment [1] (setting [5]) and in experiment [1] (setting [6]) were 42% and 40%, respectively.

Turning to `CCOC(=O)C[C@@H](C=O)NC(=O)[C@@H]1CCCN2C(=O)CC[C@H](NC(=O)c3ccccc3)C(=O)N12` [Compound 2100i, [3S(1S,9S)]3-(9-Benzoylamino-6,10-dioxo-1,2,3,4,7,8,9,10-octahydro-6H-pyridazino[1,2-a][1,2]diazepine-1-carboxamido)-4-oxobutanoic acid ethyl ester], the results for the inhibition at 50 mg/kg in experiment [1] (setting [5]) and in experiment [1] (setting [6]) were 74% and 19%, respectively.

The Ki is a dissociation constant, usually derived from enzyme kinetics or from competition with a known ligand. Read a low Ki as tighter binding. As for `O=C[C@H](CC(=O)O)NC(=O)[C@@H]1CCCN2C(=O)CCN(NC(=O)C(=O)c3c[nH]c4ccccc34)C(=O)N12` [Compound 1108], the half-inhibitory concentration (IC50) was determined as 2600 nM in experiment [2] (Homo sapiens, Table 17) and 1400 nM in experiment [4] (Homo sapiens, PBMC, Table 17). This compound registered a Ki in experiment [3] (Table 17) of 22 nM.

As for `COc1cccc(OC)c1C(=O)C(=O)N[C@H]1CCC(=O)N2CCC[C@@H](C(=O)N[C@H](C=O)CC(=O)O)N2C1=O` [Compound 501], the IC50 was 1600 nM in experiment [2] (Homo sapiens, Table 17) and 1800 nM in experiment [4] (Homo sapiens, PBMC, Table 17). The same compound gave a Ki in experiment [3] (Table 17) of 2.5 nM.

`CC(=O)N1C[C@H](NC(=O)C(=O)c2ccc3c(c2)OCO3)C(=O)N(CC(=O)N[C@H](C=O)CC(=O)O)c2ccccc21` [Compound 702]: the IC50 is 20000 nM in experiment [2] (Homo sapiens, Table 17) and above 5000 nM in experiment [4] (Homo sapiens, PBMC, Table 17). In experiment [3] (Table 17), the affinity, expressed as Ki, was 45 nM.

As for `O=C[C@H](CC(=O)O)NC(=O)[C@@H]1CCCN2C(=O)CC[C@H](NC(=O)c3cc(Cl)cc(Cl)c3)C(=O)N12` [Compound 214j, [3S(1S,9S)]3-(9-(3,5-Dichlorobenzoyl)amino-6,10-dioxo-1,2,3,4,7,8,9,10-octahydro-6H-pyridazino[1,2-a][1,2]diazepine-1-carboxamido)-4-oxobutanoic acid], the IC50 in experiment [2] (Homo sapiens, Table 17) was determined as 6000 nM; in experiment [4] (Homo sapiens, PBMC, Table 17) it was 2500 nM. In experiment [3] (Table 17), the Ki was found to be 4.2 nM.

`COc1ccccc1C(=O)C(=O)NN1CCC(=O)N2CCC[C@@H](C(=O)N[C@H](C=O)CC(=O)O)N2C1=O` [Compound 1111]: the IC50 worked out at 4400 nM in experiment [2] (Homo sapiens, Table 17) and 6050 nM in experiment [4] (Homo sapiens, PBMC, Table 17). The affinity in experiment [3] (Table 17) corresponds to a Ki of 18 nM.

Consider `O=C[C@H](CC(=O)O)NC(=O)CN1C(=O)[C@@H](NC(=O)c2ccccc2)CN(C(=O)CCc2ccccc2)c2ccccc21` [Compound 605a, (3S)-3-[(3S)-2-oxo-3-benzoylamino-5-(3-phenylpropionyl)-2,3,4,5-tetrahydro-1H-1,5-benzodiazepin-1-acetylamino-]4-oxo-butyric acid], for which the IC50 is above 20000 nM in experiment [2] (setting [7]) and 2600 nM in experiment [4] (setting [8]). In addition, affinity in experiment [3] (Table 5) was put at a Ki of 90 nM.

Consider `CC(C)(C)OC(=O)C[C@@H](C=NOCc1c(Cl)cccc1Cl)NC(=O)[C@@H]1CCCN2C(=O)CC[C@H](NC(=O)c3ccccc3)C(=O)N12` [Compound 307a, [3S(1S,9S)3-(9-Benzoylamino-6,10-dioxo-1,2,3,4,7,8,9,10-octahydro-6H-pyridazino-[1,2-a][1,2]diazapine-1-carboxamido)-amino]-4-oxobutanoicacid t-butyl ester, O-(2,6-dichlorophenylmethyl)oxime], for which the IC50 in experiment [2] (setting [9]) was determined as 16000 nM; in experiment [4] (setting [9]) it was 14500 nM. Moreover, the affinity in experiment [3] (Table 5) corresponds to a Ki of 55 nM.

With `COc1ccc(C(=O)N[C@H]2CN(C(=O)CO)c3ccccc3N(CC(=O)N[C@H](C=O)CC(=O)O)C2=O)cc1` [Compound 912], the IC50 in experiment [2] (Homo sapiens, Table 17) was determined as 3800 nM; in experiment [4] (Homo sapiens, PBMC, Table 17) it was 4200 nM. For the same compound, the Ki in experiment [3] (Table 17) was 10 nM.

On to `Cc1cc(C(=O)N[C@H]2CCC(=O)N3CCC[C@@H](C(=O)N[C@H](C=O)CC(=O)O)N3C2=O)no1` [Compound 424], for which the figures for the IC50 in experiment [2] (setting [7]) and in experiment [4] (setting [8]) were 4000 nM and 2500 nM, respectively. Further, the affinity in experiment [3] (Table 5) corresponds to a Ki of 45 nM.

Regarding `CC(=O)Nc1ccc(C(=O)N[C@H]2CN(C(C)=O)c3ccccc3N(CC(=O)N[C@H](C=O)CC(=O)O)C2=O)cc1` [Compound 627], the IC50 in experiment [2] (setting [7]) came to 8000 nM; in experiment [4] (setting [8]), 3250 nM. Further, the Ki in experiment [3] (Table 5) stood at 43 nM.

For the compound `O=C[C@H](CC(=O)O)NC(=O)[C@@H]1CCCN2C(=O)CC[C@H](NC(=O)c3ccc4ccccc4c3)C(=O)N12` [Compound 407], the figures for the IC50 in experiment [2] (setting [7]) and in experiment [4] (setting [8]) were 1700 nM and 540 nM, respectively. Besides, in experiment [3] (Table 5), the Ki was 0.4 nM.

Take `O=C[C@H](CC(=O)O)NC(=O)[C@@H]1CCCN2C(=O)CC[C@H](NC(=O)c3ccc(O)c(Cl)c3)C(=O)N12` [Compound 498]: the IC50 was found to be 400 nM in experiment [2] (setting [9]), 500 nM in experiment [2] (setting [7]) and 560 nM in experiment [4] (setting [8]). This compound yielded a Ki in experiment [3] (Table 5) of 1.5 nM.

For the compound `O=C[C@H](CC(=O)O)NC(=O)[C@@H]1CCCN2C(=O)CC[C@H](NC(=O)c3ccccc3Cl)C(=O)N12` [Compound 406], the IC50 in experiment [2] (setting [7]) turned out to be 2300 nM; in experiment [4] (setting [8]), 1650 nM. This compound also showed a Ki in experiment [3] (Table 5) of 4 nM.

Regarding `O=C[C@H](CC(=O)O)NC(=O)[C@@H]1CCCN2C(=O)CCN(NC(=O)C(=O)c3ccccc3)C(=O)N12` [Compound 1106], the IC50 worked out at 1700 nM in experiment [2] (Homo sapiens, Table 17) and 4000 nM in experiment [4] (Homo sapiens, PBMC, Table 17). The affinity in experiment [3] (Table 17) corresponds to a Ki of 75 nM.

Regarding `COc1ccccc1C(=O)C(=O)N[C@H]1CN(C(=O)CO)c2ccccc2N(CC(=O)N[C@H](C=O)CC(=O)O)C1=O` [Compound 921], the IC50 in experiment [2] (Homo sapiens, Table 17) amounted to 3000 nM; in experiment [4] (Homo sapiens, PBMC, Table 17), 1800 nM. The compound also registered a Ki in experiment [3] (Table 17) of 8.5 nM.
